We go through five molecules from patent US20200297820A1, “STIMULATION OF HUMAN MEIBOMIAN GLAND FUNCTION” (The Schepens Eye Research Institute, Inc., priority 2013, published 2020).

For series [1], the system named is immortalized human meibomian gland cells. The series is described as follows: 13-cis RA-induced late apoptosis/necrosis. Type of series: cell-based.
The subject of series [2] is immortalized human meibomian gland epithelial cells. The series is described as follows: LipidTOX green neutral lipid staining (lipid accumulation). The format is cell-based. The following applies: for lipid accumulation: 10^−8 M. The method, then:
(§1) As an example of these experiments, immortalized human meibomian gland epithelial cells were cultured in the presence or absence of 10% fetal bovine serum. Cells were treated with an ethanol vehicle or azithromycin (10 μg/ml; Santa Cruz Biotechnology) for varying time periods. Cellular morphological appearance was recorded, cells were counted with a hemocytometer, and lipid accumulation was assessed by staining the cells with LipidTOX green neutral lipid stain (Invitrogen, Grand Island, N.Y.), according to reported methods. Staining fluorescent intensities were quantified by using ImageJ (http://rsbweb.nih.gov/ij/index.html). Statistical analyses were performed with Student's t-test (two-tailed, unpaired).
(§2) Immortalized human meibomian gland epithelial cells (IHMGECs; passages 20-22) were cultured in the presence or absence of 10% fetal bovine serum. Cells were treated with the ethanol vehicle or azithromycin (10 μg/mL) for varying periods. Cellular morphological appearance was recorded, cells were counted with a hemocytometer, and lipid accumulation was assessed by staining cells with LipidTOX green neutral lipid stain (Invitrogen Corp). Staining fluorescent intensities were quantified using ImageJ software (http://rsbweb.nih.gov/ij/index.html). Statistical analyses were performed with t test (2-tailed, unpaired).
Cell numbers were enumerated with a hemocytometer. Cellular lipid and lysosome accumulation were examined by staining cells with: Filipin III (a fluorometric probe for identifying unesterified cholesterol), LipidTOX green neutral lipid stain, and LysoTracker® Red DND-99 (a fluorescent technique designed for labeling acidic organelles such as lysosomes). Lysosomal lamellar bodies were identified by transmission electron microscopy. In brief, after culture and treatment on 24 mm polycarbonate membrane transwell inserts (0.4 μm pore size), cells were fixed in a solution of 2% formaldehyde+2.5% glutaraldehyde, in 0.08 M sodium cacodylate buffer, pH 7.4, post-fixed with 2% osmium tetroxide in 0.1 M sodium cacodylate buffer, and stained en bloc with 2% aqueousuranyl acetate. […] Cross sections (1 μM) were stained with 1% toluidine blue in 1% sodium tetraborate solution. Ultra-thin sections (60-90 nm) were imaged with a transmission electron microscope interfaced with a digital CCD camera. For biochemical assessments, cellular lipids were extracted with chloroform and methanol from samples with the same amount of protein. Lipids were then evaluated with high-performance thin-layer chromatography. With regard to the staining results, three Filipin, five LipidTox and four LysoTracker studies were conducted, and each experiment was performed in duplicate. Four random pictures were taken of each group, and four random areas were selected for the measurement of fluorescent intensities. The HPTLC experiments were performed in duplicate more than three times. Image data were quantified with ImageJ (http://rsbweb.nib.gov/ij/index.html). Electron microscopic analyses were performed in triplicate.
The experiment included green neutral lipid staining. Immortalized human meibomian gland epithelial cells were cultured in slides treated to facilitate cell growth in FBS-containing medium in the presence or absence of IGF-1, anti-IGF-1R, and/or GH. Media were replaced every 2 to 3 days for a total of 6 days, at which time cells were washed and fixed in 4% paraformaldehyde for 30 minutes. After additional washes, cells were stained with green neutral lipid stain in a humid chamber for 30 minutes. Coverslips were mounted on slides with an antifade reagent that contains 4′,6-diamidino-2-phenylindole nuclear stain and permitted to dry overnight before imaging with a microscope. Fluorescence intensity was quantified using image-processing software.

Series [3] deals with human meibomian gland epithelial cells. Description: Immunoblot of signaling pathways (Akt, FoxO1, ERK, JAK2/STAT5). The format is cell-based. The method, then:
The disclosure turns now to sodium dodecyl sulfate-polyacrylamide gel, electrophoresis, and immunoblots. Cells were directly lysed in Laemmli buffer supplemented with 1% protease inhibitor cocktail (Sigma-Aldrich) and 5% β-mercaptoethanol (Sigma-Aldrich). Lysates were heated at 95° C. for 10 minutes, separated by sodium dodecyl sulfate-polyacrylamide gel electrophoresis on 10% Tris-glycine precast gels, and transferred to polyvinylidene difluoride membranes. Rabbit or mouse antibodies used were specific for phosphorylated Akt (p-Akt), pan-Akt, p-FoxO1, FoxO1, p-JAK2, JAK2, and β-actin; for p-ERK, ERK-2, STAT5, and the precursor form of SREBP-1; and for p-STAT5. Membranes were blocked with 5% bovine serum albumin in Tris-buffered saline containing 0.01% polysorbate 20. All primary antibodies were diluted to 1:1000 in blocking buffer except for p-Akt (1:4000), p-ERK (1:2000), ERK-2 (1:4000), SREBP-1 (1:200), and β-actin (1:10 000). Horseradish peroxidase-conjugated secondary antibodies were goat anti-rabbit IgG and Fc-specific goat anti-mouse IgG diluted to 1:5000. Proteins were visualized with enhanced chemiluminescent substrate or with ultrasensitive chemiluminescent substrate. Densitometry was performed with image-processing software.
To determine whether IGF-1 promotes the phosphorylation of Akt in human meibomian gland epithelial cells, cells were cultured under proliferating or differentiating conditions and then exposed to IGF-1 for 15 minutes.
FIGS. 9a, 9b, and 9c illustrate the effects of insulin-like growth factor 1 (IGF-1) and growth hormone (GH) on signaling pathways in human meibomian gland epithelial cells. Cells were cultured in keratinocyte serum-free medium containing epidermal growth factor (EGF) and bovine pituitary extract (BPE) for 2 days and then keratinocyte serum-free medium alone overnight or were cultured in 10% fetal bovine serum (FBS) medium for 5 to 7 days and in 1% FBS medium overnight. Cells were then incubated with vehicle or a 10 μM concentration of LY294002 for 2 hours, followed by IGF-1 or GH treatment for 15 minutes. Cell lysates were evaluated on immunoblotting. […] These experiments were repeated at least 3 times with similar results.
To assess whether GH activates Akt, FoxO1, ERK-2, or its classic (i.e., JAK2 and STAT5) signaling pathways in human meibomian gland epithelial cells, cells were cultured in proliferating or differentiating media, and were exposed to a 10 nM concentration of GH for 15 minutes, and processed for immunoblot analyses. […]
(In general: Immunoblotting shows a protein as a band on a membrane.)

The test system of series [4] is immortalized human meibomian gland epithelial cells. The series is described as follows: Cell proliferation, cells counted with a hemocytometer. The format is cell-based. As to conditions: insulin. The method, then: as §1, §2
Regarding cell proliferation assay, the human meibomian gland epithelial cells and LNCaP cells were cultured in 12-well plates in designated media and then exposed to IGF-1 or GH for defined periods. At experimental termination, cells were trypsinized and counted with a hemocytometer.
FIGS. 10a, 10b, and 10c illustrate the influence of IGF-1 on the proliferation of human meibomian gland epithelial cells. Cells were cultured (100,000 cells/well in 12-well plates, 3 wells per group) in basal, proliferating, and/or differentiating media and treated with IGF-I for 2 to 6 days. […] P values are for post hoc comparison compared with the control value. […] ANOVA indicates analysis of variance; EGF-BPE, epidermal growth factor-bovine pituitary extract; KSFM, keratinocyte serum-free medium. All comparisons are with control value. Whiskers mark SEM. aP<0.05 compared with the control value, post hoc test.

The conditions of series [5]: one trial; cited from earlier work.

`CC1=C(/C=C/C(C)=C/C=C/C(C)=C\C(=O)O)C(C)(C)CCC1` [13-cis RA]: in series [1], the “induction of late apoptosis/necrosis” value is given as “induced late apoptosis/necrosis”.
For the molecule `C[C@]12CCC(=O)C[C@@H]1CC[C@@H]1[C@@H]2CC[C@]2(C)[C@@H](O)CC[C@@H]12` [Dihydrotestosterone], the lipid accumulation entry in series [2] is on record as “marked lipid accumulation”. In series [3], the “phosphorylation of extracellular-signal-regulated kinases (ERKs)” value is “increase the phosphorylation”.
On to `CC(=O)[C@H]1CC[C@H]2[C@@H]3CCC4=CC(=O)CC[C@]4(C)[C@H]3CC[C@]12C` [progesterone], for which, in series [2], the lipid accumulation result is listed as “marked lipid accumulation”.
As to Insulin: insulin, an IGF-1 analogue, the “accumulation of neutral lipids” value in series [2] (insulin) was “promotes meibomian gland epithelial cell accumulation of neutral lipids”. The “activation of AKT signaling pathway” value in series [3] (cells in serum-containing medium 5-7 days before treatment) was “dose-dependent manner”. In addition, the cell proliferation result in series [4] is given as “promotes meibomian gland epithelial cell proliferation”.

B1: figitumumab: human IgG2 monoclonal antibody that prevents the binding of IGF-1 to its receptor (antibody, chains of the INN, looked up)
heavy: EVQLLESGGGLVQPGGSLRLSCTASGFTFSSYAMNWVRQAPGKGLEWVSAISGSGGTTFYADSVKGRFTISRDNSRTTLYLQMNSLRAEDTAVYYCAKDLGWSDSYYYYYGMDVWGQGTTVTVSSASTKGPSVFPLAPCSRSTSESTAALGCLVKDYFPEPVTVSWNSGALTSGVHTFPAVLQSSGLYSLSSVVTVPSSNFGTQTYTCNVDHKPSNTKVDKTVERKCCVECPPCPAPPVAGPSVFLFPPKPKDTLMISRTPEVTCVVVDVSHEDPEVQFNWYVDGVEVHNAKTKPREEQFNSTFRVVSVLTVVHQDWLNGKEYKCKVSNKGLPAPIEKTISKTKGQPREPQVYTLPPSREEMTKNQVSLTCLVKGFYPSDIAVEWESNGQPENNYKTTPPMLDSDGSFFLYSKLTVDKSRWQQGNVFSCSVMHEALHNHYTQKSLSLSPG
light: DIQMTQFPSSLSASVGDRVTITCRASQGIRNDLGWYQQKPGKAPKRLIYAASRLHRGVPSRFSGSGSGTEFTLTISSLQPEDFATYYCLQHNSYPCSFGQGTKLEIKRTVAAPSVFIFPPSDEQLKSGTASVVCLLNNFYPREAKVQWKVDNALQSGNSQESVTEQDSKDSTYSLSSTLTLSKADYEKHKVYACEVTHQGLSSPVTKSFNRGEC
In the case of B1, the “most common adverse effect” value in series [5] is recorded as “DED”.
